Molecules are shown by their SMILES.

The target in one experiment is T1, c-KIT D816V kinase (Homo sapiens, UniProt P10721, D816V).
T1 construct: residues T544-V976 with N-terminal GST fusion; purchased deCODE Biostructures
Kind of experiment: c-KIT D816V kinase Assay. The class given is biochemical. To be noted: enzymatic assay, ATP 200 uM. A digest of the protocol:
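Coupled assay in which NADH oxidation was tracked as decreasing absorbance at 340 nm, continuously for 5 hours at 30 °C after adding serially diluted compound. Enzyme: cKit residues T544-V976 with N-terminal tag, GST fusion and TEV cleavage site.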

Another experiment concerns GIST430 cells. Kind of experiment: GIST 430 Cell Proliferation Assay. It is filed as cell-based. As to conditions: Homo sapiens, 120 h, 115 hours + 5 hours resazurin. The protocol:
GIST48, GIST430, and GIST882 cells were obtained from J. Fletcher (Brigham and Women's Hospital, Boston, MA). GIST T1 cells were obtained from B. Rubin (Cleveland Clinic, Cleveland, OH) and Professor Takahiro Taguchi (Kochi Medical School, Nankoku, Kochi, Japan). Briefly, GIST48 and GIST 882 cells were grown in RPMI 1640 medium supplemented with 15% characterized fetal bovine serum (Invitrogen, Carlsbad, CA), 1 unit/mL penicillin G, 1 µg/ml streptomycin, and 0.29 mg/mL L-glutamine at 37 °C, 5% CO2, and 95% humidity. GIST430 cells were grown in Ham's F10 medium supplemented with 15% characterized fetal bovine serum (Invitrogen, Carlsbad, CA), 30 mg/L bovine pituitary extract (BD Biosciences, San Jose, CA), 0.5% Mito+ serum extender (BD Biosciences, San Jose, CA), 1 unit/mL penicillin G, 1 µg/ml streptomycin, and 0.29 mg/mL L-glutamine at 37 °C, 5%CO2, 95% humidity. GIST T1 cells were grown in DMEM medium supplemented with 10% characterized fetal bovine serum (Invitrogen, Carlsbad, CA), 1 unit/mL penicillin G, 1 µg/ml streptomycin, and 0.29 mg/mL L-glutamine at 37 °C, 5% CO2, and 95% humidity.
A serial dilution of test compound was dispensed into a 384-well black clear bottom plate (Corning, Corning, NY). Two thousand five-hundred cells were added per well in 50 µL complete growth medium. Plates were incubated for 115 hours at 37°C, 5% CO2, 95% humidity. At the end of the incubation period 10 µL of a 440 µM solution of resazurin (Sigma, St. Louis, MO) in PBS was added to each well and incubated for an additional 5 hours at 37°C, 5% CO2, 95% humidity. Plates were read on a Synergy2 reader (Biotek, Winooski, VT) using an excitation of 540 nm and an emission of 600 nm.
For orientation: Resazurin is reduced to fluorescent resorufin, in cell work by metabolically active cells.

The target in a further experiment is T2, c-KIT D816H kinase (Homo sapiens, UniProt P10721, D816H).
T2 construct: The construct contains residues T544-V976 of cKit; GST (N); TEV cleavage site (internal); purchased deCODE Biostructures
T2 sequence (P10721 544-976 D816H): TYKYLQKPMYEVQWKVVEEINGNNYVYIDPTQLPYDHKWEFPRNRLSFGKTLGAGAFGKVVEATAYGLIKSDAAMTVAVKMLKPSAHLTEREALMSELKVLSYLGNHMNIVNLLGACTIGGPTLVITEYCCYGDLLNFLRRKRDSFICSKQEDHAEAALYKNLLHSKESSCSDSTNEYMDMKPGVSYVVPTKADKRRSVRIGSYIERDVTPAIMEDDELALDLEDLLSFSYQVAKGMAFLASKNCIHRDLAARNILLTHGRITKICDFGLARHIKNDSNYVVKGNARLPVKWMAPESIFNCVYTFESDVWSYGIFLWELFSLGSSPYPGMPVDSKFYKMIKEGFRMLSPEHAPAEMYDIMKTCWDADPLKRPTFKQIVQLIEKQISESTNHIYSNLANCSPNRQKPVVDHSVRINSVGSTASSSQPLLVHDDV
Nature of the experiment: c-KIT D816H Kinase Assay. The class given is biochemical. To be noted: enzymatic assay, ATP 200 µM. The method in brief: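 Coupled spectrophotometric assay following NADH oxidation as absorbance decrease at 340 nm, monitored continuously for 6 hours at 30 °C after adding serially diluted compound. Enzyme: mutant cKit construct with N-terminal tag, GST fusion and TEV cleavage site.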

The test system of another experiment is Phospho-KIT (Tyr719). Nature of the experiment: GIST48 KIT Western Blot. The class given is cell-based. To be noted: GIST48 cells, 4 hours, serum-free medium; read-out: pKIT suppression by western blot analysi GIST48. The method in brief:
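Phospho-KIT (Tyr719) was immunoblotted on PVDF and imaged in fluorescence mode after ECL Plus, with stripping and reprobing for total KIT. IC50 values were derived from the blot signals.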
A general note: In western blotting, separated proteins are transferred to a membrane and probed.

The target in another experiment is T3, c-KIT T670I kinase (Homo sapiens, UniProt P10721, T670I).
T3 construct: The construct contains residues T544-V976 of cKit; GST (N); TEV cleavage site (internal); purchased deCODE Biostructures
T3 sequence (P10721 544-976 T670I): as the sequence (P10721 544-976 D816H) above, with T127I, H273D counted along it
Nature of the experiment: c-KIT T670I kinase assay. To be noted: enzymatic assay. It is filed as biochemical. A digest of the protocol:
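Coupled spectrophotometric assay following NADH oxidation as absorbance decrease at 340 nm, monitored continuously for 5 h at 30 °C after adding serially diluted compound. Enzyme is a cKit construct with N-terminal tag, GST fusion and TEV site, carrying the T670I mutation.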

In another experiment the test system is GIST T1 cells. Kind of experiment: GIST T1 Cell Proliferation Assay. It is filed as cell-based. To be noted: Homo sapiens, GISTT1, 72 h, 68 hours + 4 hours resazurin.
Experiment [1] has as its target T4, c-KIT kinase (Homo sapiens, UniProt P10721). Nature of the experiment: c-KIT kinase Assay. The class given is biochemical. Further details: cKIT residues T544-V976; GST (N); TEV cleavage site (internal); purchased deCODE Biostructures. As to conditions: enzymatic assay, ATP 200 µM; read-out: KIT (wt) IC50. A digest of the protocol:
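Activity of wild-type human c-KIT kinase was followed as NADH oxidation, read as falling absorbance at 340 nm on a Synergy 2 plate reader (BioTeK) for 2 hours at 30 °C. Rates from the 0 to 1 h window were compared with an uninhibited control to give percent inhibition. IC50 values were fitted in GraphPad Prism across a range of inhibitor concentrations.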
Target sequence in this assay (P10721 544-976): as the sequence (P10721 544-976 D816H) above, with H273D counted along it

In experiment [2] the target is T4, c-KIT kinase. Kind of experiment: Kinase inhibitory profile of marketed inhibitors, c-KIT kinase. The class given is biochemical.
Target sequence in this assay (P10721 26-976): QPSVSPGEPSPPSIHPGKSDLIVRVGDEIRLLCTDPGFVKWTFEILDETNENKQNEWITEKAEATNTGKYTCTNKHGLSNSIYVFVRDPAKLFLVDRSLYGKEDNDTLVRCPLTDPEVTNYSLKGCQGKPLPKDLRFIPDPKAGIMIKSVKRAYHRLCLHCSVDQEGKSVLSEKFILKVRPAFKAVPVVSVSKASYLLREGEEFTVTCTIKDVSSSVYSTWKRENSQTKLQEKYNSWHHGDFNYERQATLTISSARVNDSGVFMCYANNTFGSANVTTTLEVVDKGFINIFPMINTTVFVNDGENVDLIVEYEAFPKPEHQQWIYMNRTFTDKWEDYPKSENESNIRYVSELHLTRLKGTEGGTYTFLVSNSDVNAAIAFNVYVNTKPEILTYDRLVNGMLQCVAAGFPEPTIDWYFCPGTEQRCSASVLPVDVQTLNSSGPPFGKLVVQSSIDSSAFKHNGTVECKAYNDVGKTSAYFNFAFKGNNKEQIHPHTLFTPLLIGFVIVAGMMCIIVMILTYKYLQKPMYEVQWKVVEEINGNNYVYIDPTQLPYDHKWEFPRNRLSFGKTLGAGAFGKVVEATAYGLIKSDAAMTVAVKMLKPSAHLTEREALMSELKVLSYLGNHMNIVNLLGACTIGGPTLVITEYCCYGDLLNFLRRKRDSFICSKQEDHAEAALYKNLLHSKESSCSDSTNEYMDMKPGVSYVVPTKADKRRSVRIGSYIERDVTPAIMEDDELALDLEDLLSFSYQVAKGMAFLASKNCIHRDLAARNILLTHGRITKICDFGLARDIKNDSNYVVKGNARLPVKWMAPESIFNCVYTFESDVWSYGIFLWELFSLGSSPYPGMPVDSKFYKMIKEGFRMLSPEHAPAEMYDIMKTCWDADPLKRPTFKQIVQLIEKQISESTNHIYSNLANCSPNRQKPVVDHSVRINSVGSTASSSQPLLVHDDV
The next experiment deals with T5, c-KIT V654A kinase (Homo sapiens, UniProt P10721, V654A).
T5 construct: residues T544-V976 with N-terminal GST fusion; purchased deCODE Biostructures
T5 sequence (P10721 544-976 V654A): as the sequence (P10721 544-976 D816H) above, with V111A, H273D counted along it
Nature of the experiment: c-KIT V654A Kinase Assay. The class given is biochemical. To be noted: enzymatic assay, ATP 200 µM. A digest of the protocol:
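Construct: cKIT residues T544–V976 with N-terminal tag, GST fusion and TEV site. Reaction started by adding serially diluted compound to the enzyme mixture; NADH oxidation, coupled to kinase turnover, followed as the decrease in A340 for 6 h at 30 °C.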

The next experiment addresses T6, c-KIT VVDV kinase (Homo sapiens, UniProt P10721, D816V/DEL559-560).
T6 construct: This construct contains residues T544-V976 of cKit; GST (N); TEV cleavage site (internal); purchased deCODE Biostructures
Nature of the experiment: cKIT-VVDV kinase Assay. It is filed as biochemical. As to conditions: enzymatic assay; V559+V560 deletions and D816V mutation. The protocol: In this assay, the oxidation of NADH (measured by decrease in absorbance at 340 nm) was continuously monitored spectrophotometrically. […] The inhibition reaction was started by mixing serial diluted test compound with the above reaction mixture. The absorption at 340 nm was monitored continuously for 5 hours at 30 °C on Synergy 2 plate reader (BioTech). […] The protein construct was prepared by deCODE Biostructures using procedures known in the art. […] This construct is identical to Seq ID no.

T1 sequence (P10721 544-976 D816V): as the sequence (P10721 544-976 D816H) above, with H273V counted along it
T6 sequence (P10721 with tags, fused parts or gaps DEL559-560/D816V): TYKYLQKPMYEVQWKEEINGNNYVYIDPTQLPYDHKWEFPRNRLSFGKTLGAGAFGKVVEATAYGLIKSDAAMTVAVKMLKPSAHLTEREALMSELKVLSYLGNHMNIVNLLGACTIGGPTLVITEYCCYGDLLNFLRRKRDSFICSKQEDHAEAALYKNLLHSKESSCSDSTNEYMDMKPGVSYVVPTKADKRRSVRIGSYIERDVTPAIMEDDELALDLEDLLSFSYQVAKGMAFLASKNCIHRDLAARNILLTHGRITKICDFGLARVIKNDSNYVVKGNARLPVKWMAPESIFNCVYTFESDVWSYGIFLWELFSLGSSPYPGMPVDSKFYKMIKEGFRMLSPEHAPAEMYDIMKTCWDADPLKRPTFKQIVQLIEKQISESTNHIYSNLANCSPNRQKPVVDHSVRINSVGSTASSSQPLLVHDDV

As for `CCn1c(=O)c(-c2cc(NC(=O)Nc3ccccc3F)c(F)cc2C)cc2cnc(NC)cc21` [Example 38, 1-(5-(1-ethyl-7-(methylamino)-2-oxo-1,2-dihydro-1,6-naphthyridin-3-yl)-2-fluoro-4-methylphenyl)-3-(2-fluorophenyl)urea], the IC50 at c-KIT D816V kinase is 10 to 100 nM; in the experiment with GIST430 cells, 10 to 100 nM; on c-KIT D816H kinase, 10 to 100 nM; in the experiment with Phospho-KIT (Tyr719), more than 1000 nM; at c-KIT T670I kinase it was 100 to 1000 nM; in the experiment on GIST T1 cells, less than 10 nM. At c-KIT kinase [1], the IC50 was less than 10 nM.

`CCCS(=O)(=O)Nc1ccc(F)c(C(=O)c2c[nH]c3ncc(-c4ccc(Cl)cc4)cc23)c1F` [Vemurafenib®, vemurafenib] displayed an IC50 against c-KIT kinase [2] of 1600 nM.

Take `CCn1c(=O)c(-c2cc(NC(=O)Nc3ccccc3)c(F)cc2Cl)cc2cnc(NCCCOC)cc21` [Example 39, 1-(4-chloro-5-(1-ethyl-7-(3-methoxypropylamino)-2-oxo-1,2-dihydro-1,6-naphthyridin-3-yl)-2-fluorophenyl)-3-phenylurea]: the IC50 on c-KIT D816V kinase was 10 to 100 nM; in the experiment on GIST430 cells it was 10 to 100 nM; at c-KIT T670I kinase it was 10 to 100 nM; at c-KIT kinase [1], less than 10 nM.

As for `CNc1cc2c(cn1)cc(-c1cc(NC(=O)Nc3cccc(F)c3)c(F)cc1F)c(=O)n2C(C)C` [Example 40, 1-(2,4-difluoro-5-(1-isopropyl-7-(methylamino)-2-oxo-1,2-dihydro-1,6-naphthyridin-3-yl)phenyl)-3-(3-fluorophenyl)urea], the IC50 at c-KIT D816V kinase lay within 10 to 100 nM; in the experiment on GIST430 cells, 100 to 1000 nM; at c-KIT D816H kinase it was 10 to 100 nM; on c-KIT V654A kinase it was 10 to 100 nM; at c-KIT VVDV kinase it was 100 to 1000 nM; at c-KIT T670I kinase it was 100 to 1000 nM. Also, the IC50 in the experiment with GIST T1 cells and at c-KIT kinase [1] was less than 10 nM each time.

Source of the values: EP3722296B1, “DIHYDRONAPHTHYRIDINES AND RELATED COMPOUNDS USEFUL AS KINASE INHIBITORS FOR THE TREATMENT OF PROLIFERATIVE DISEASES” (Deciphera Pharmaceuticals, LLC, priority 2012, dated 2013).
